Entries after “also recorded” stand apart in the source; their conditions may differ.
Assays:
[1] = observation of status and clinical manifestations of mice during multiple rounds of administration; type: in vivo, C57 mice; conditions: for mice depilated, dispirited and in poor state: after 3 consecutive rounds
Method: B. The schematic diagram of the multiple dosing and the subsequent blood routine examinations in mice. The drug was administered on 3 consecutive days per week, followed by a 4-day interval, for 3 weeks continuous administration. The drug was administered by intraperitoneal injection in the afternoon on days 0, 1, 2, 7, 8, 9, 14, 15, and 16, and the blood was collected and tested in the morning on days 1, 3, 5, 8, 10, 12, 15, 17, and 19, respectively.
A single administration of A13 or A13bG was performed. Female 5-6 week old C57 mice were treated with a single intraperitoneal injection. A13 and A13bG were administered in three different dose groups of 2, 5, and 20 mg/kg. Approximately 50 μl of blood was collected from each mouse at different time points into the EDTA tubes (RAM Scientific) by means of inner canthal blood extraction, and analyzed using a haematology analyzer for a blood routine examination and a platelet counting. Multiple administrations of A13 or A13bG were performed. Female 5-6 week old C57 mice were treated with multiple intraperitoneal injections. A13 and A13bG were administered in three different dose groups of 2, 5 and 20 mg/kg, three consecutive days per week, followed by a 4-day withdrawal for 3 weeks. The time points of administration were in the afternoon of days 0, 1, 2, 7, 8, 9, 14, 15, and 16, and the time points of blood collection and testing were in the morning of days 1, 3, 5, 8, 10, 12, 15, 17, and 19, respectively.

[2] = liver microsomal metabolic stability, human
Method: Hepatic Microsomal Metabolic Stability
A13bGa1 was co-incubated with the mouse, rat, canine, monkey and human […] and the incubation medium at a final drug concentration of 1 μM in the incubation system for 60 minutes. Samples were taken and analyzed at time points 0, 15, 30, 45 and 60 minutes during the incubation. The reaction was terminated by adding an amount of acetonitrile solution containing the internal standard. […] The residual percentage, half-life, intrinsic clearance, amplified clearance, hepatic clearance and hepatic extraction ratio were determined. The entire experiment was performed in triplicate. All data calculations were performed by Microsoft Excel software. Peak areas were detected by extracting the ionic spectrum. The in vitro half-life (t1/2) of the parent compound was detected by fitting the natural logarithm of the percentage elimination of the parent compound linearly to time.
The in vitro intrinsic clearance (in μL/min/mg protein) was calculated using the following equation: in vitro CLint=kV/N
The amplified clearance (in mL/min/kg) was calculated using the following equation: Amplified CLint=kV/N×the amplification factor
The hepatic clearance (in mL/min/kg) was calculated using the following equation: The predicted hepatic CLH=(Q×Fu/RB×the amplified CLint)/(Q+Fu/RB×the amplified CLint) • V=the incubation volume per well (0.2 mL); • N=the total amount of protein (mg) • Q=the hepatic blood flow (mL/min/kg) • Fu=the plasma free rate (assumed to be 1) • RB=the whole blood partition coefficient (assumed to be 1)
The hepatic uptake rate was calculated using the following equation:
The hepatic extraction ratio (ER)=(the predicted hepatic CLH)/Q

[3] = test system: mouse model of oxygen-induced retinopathy; assay: oxygen-induced retinopathy, retinal microvessel staining analysis; type: in vivo, C57BL6/J mice; conditions: single intravitreal injection
Method: A. Modelling of a mouse model of oxygen-induced retinopathy, and the schematic diagram of treatment. C57BL6/J mice were cultured in 75% hyperoxia for 5 consecutive days starting from postnatal day 7, and treated by a single intravitreal administration of the drug on postnatal day 12, and then transferred to normal air atmosphere until day 17 for retinal sampling and analysis. P0, P7, P12, and P17 in the panel represent mice on postnatal days 0, 7, 12, and 17, respectively.
B. Representative diagram of the reduction of pathological avascular areas in the mouse retina after the treatment by intravitreal injection of A13bGa1. Mouse retinal microvessels were labelled by IB4 staining for the central avascular area analysis, wherein the green fluorescence represents the IB4-labelled microvascular areas, and the avascular areas are circled with white markers in the panel.
C. Statistical results of the retina pathological avascular areas after treatment of different groups of mice. […] The statistics in the panel are the quantitative results of the ischemic areas in the retinas of each sample compared with that of the VEH control group after the areas were taken as the means, and the error bar is a standard deviation. […]

SMILES: Cc1c(-c2ccc(N3CCc4cccc(C(=O)Nc5nc6ccccc6s5)c4C3)nc2C(=O)O)cnn1CC12CC3CC(CC(C3)C1)C2 [Compound A13, 3-[1-(adamantan-1-ylmethyl)-5-methylpyrazol-4-yl]-6-{8-[(1,3-benzothiazol-2-yl)carbamoyl]-3,4-dihydro-1H-isoquinolin-2-yl}pyridine-2-carboxylic acid]
- status and clinical manifestations (abnormalities) ([1]; 5 mg/kg and 20 mg/kg, 3 consecutive weeks, FIG. 4D): depilated, dispirited and in poor state; also recorded: hair loss and depression
- mice depilated, dispirited and in poor state ([1]; 5 mg/kg dose group): 2 out of 4
- mice depilated, dispirited and in poor state ([1]; 20 mg/kg dose group): 2 out of 4

SMILES: Cc1c(-c2ccc(N3CCc4cccc(C(=O)Nc5nc6ccccc6s5)c4C3)nc2C(=O)OCc2ccc(O[C@@H]3O[C@H](CO)[C@H](O)[C@H](O)[C@H]3O)c([N+](=O)[O-])c2)cnn1CC12CC3CC(CC(C3)C1)C2 [Compound A13bGa1]
- The hepatic extraction ratio (E) [2]: 0.86
- The predicted intrinsic hepatic clearance Clint ([2]; Fu and RB assumed to be 1): 17.90 mL/min/kg
- CLint scaled at 1 h, 1 µM ([2]; microsomes): 132 mL/min/kg
- half-life at 1 h, 1 µM ([2]; microsomes): 13.1 min
- microsomal CLint at 1 h, 1 µM ([2]; microsomes): 106 µL/min/mg
- retinal oxygen-induced microangiopathy [3]: effectively improve the retinal oxygen-induced microangiopathy
- area of the abnormal neovascular area in the retinas ([3]; 50 ng and 100 ng, FIGS. 6D and 6E): significantly reduced
